Test results taken from US6916797B2, “α-arylethylpiperazine derivatives as neurokinin antagonists” (UCB, S.A., priority 2000, dated 2005).

How the values were obtained:
[1] = test system: verapamil binding site of the L-type calcium channel; assay: Inhibition of [3H]D888 binding to the verapamil binding site of the L-type calcium channel (rat cerebral cortex membranes); conditions: 10 μmol/l of test substance
Protocol: 200-250 g male Sprague-Dawley rats are sacrificed by decapitation. Cerebral cortices are quickly dissected on ice and homogenized in a 20 mmol/l Tris-HCl (pH 7.4) buffer containing 250 mmol/l sucrose (buffer A). The homogenate is centrifuged at 30,000 g for 15 min at 4° C. The resulting crude membrane pellet is resuspended in a 50 mmol/l Tris-HCl (pH 7.4) buffer and incubated 15 min at 37° C. before being centrifuged at 30,000×g for 15 min at 4° C. After two more washes under the same conditions, the final pellet is resuspended in buffer A at a protein concentration ranging from 15 to 25 mg/ml and stored in liquid nitrogen.
Binding experiments are essentially performed according to Reynolds J. et al., J. Pharmacol. Exp. Ther. (1986), 237, 731-738. (1986) with slight modifications.
Membranes (120-175 μg/assay) are incubated at 25° C. for 60 min in 0.5 ml of a 50 mmol/l Tris-HCl buffer (pH 7.4) containing 2 mmol/l MgCl2, 0.2 to 0.4×10-9 mol/l of [^3H]D888 (85 Ci/mmol; Amersham, Belgium) and 10 μmol/l of the test substance. The non specific binding (NSB) is defined as the residual binding observed in the presence 10 μM verapamil. Membrane-bound and -free radioligands are separated by rapid filtration through glass fiber filters (equivalent to Whatman GF/C or GF/B; VEL, Belgium) presoaked in 0.1% polyethyleneimine to reduce non specific binding. Samples and filters are rinsed by at least 6 ml of 50 mmol/l Tris-HCl (pH 7.4) buffer. […] The radioactivity trapped onto the filters is counted by liquid scintillation in a β-counter.
The inhibition of the radioligand specific binding is calculated as follows: [formula] • where BI and Bo represent the binding observed in the presence and absence of the test substance respectively; and • BNS is the non specific binding.
Data analysis is performed by a computerized non linear curve fitting method using a set of equations describing several binding models assuming competitive interactions between ligands (Weiland G. A. and P. B. Molinoff Life Science (1981), 29, 313-330; Molinoff P. et al. (1981) Life Sci., 29, 427-443).

[2] = test system: isolated rat aorta contracted by 100 mM KCl; assay: Effect of compound on isolated rat aorta contracted by 100 mM KCl; conditions: 10^−5 M; contraction by 100 mM KCl
Protocol: Rat thoracic aorta depolarized by 100 mM KCl develops a contraction induced by an influx of Ca^2+ into the smooth muscle cell. An inhibition of this contraction could predict a Ca^2+ antagonist activity.
The method was adapted from Polster P. et al., J. Pharmacol. Exp. Ther. (1990), 255, 593: rings of thoracic aorta were prepared from male Wistar rats (250-400 g) and mounted under an optimal resting tension of 2 g in 10 ml organ baths containing modified Krebs' solution (NaCl 112 mM, NaHCO3 25 mM, KCl 5 mM, MgSO4 1.2 mM, CaCl2 2.5 mM, KH2PO4 1 mM and glucose 11.5 mM, pH 7.4). The bathing solution was maintained at a temperature of 37° C. and gassed with 95% O2 and 5% CO2. Isometric contractions were measured with a force transducer connected to an amplifier. A computer system was used to control data acquisition and fluid circulation through electrovalves. Drugs were manually injected into the bath.
Each ring was allowed to equilibrate for 60 min in the modified Krebs' solution. […] After obtaining two reproducible control contractions, a 3rd contraction was induced and the test compound was added to the bathing medium for 2 hours. Only preparation in which the contractions were matched were used. Each tissue received only one concentration of the test compound. Appropriate control experiments were conducted in order to test the effect of the solvant.
To normalize data, the change in tension due to the drug was compared to the change of tension due to the solvant and expressed as percentage of the induced relaxation of the initial contraction. Raw data were processed by a computer system and the pD′2 value was calculated following the method of Van Rossum J. M. et al., Arch. Int. Pharmacodyn. Ther. (1963), 143, 299.

NK1 receptors = NK1 receptors (Homo sapiens, UniProt P25103); assay: Binding of [4,5-3H-Leu10] substance P to human recombinant NK1 receptors expressed in CHO cell membranes; set-up: host or cells: CHO cells; conditions: pIC50 = -log IC50, concentration inhibiting by 50% the specific binding of [4,5-3H] substance P; tested as the free base/salt given in c1
Chain of NK1 receptors (P25103 whole entry): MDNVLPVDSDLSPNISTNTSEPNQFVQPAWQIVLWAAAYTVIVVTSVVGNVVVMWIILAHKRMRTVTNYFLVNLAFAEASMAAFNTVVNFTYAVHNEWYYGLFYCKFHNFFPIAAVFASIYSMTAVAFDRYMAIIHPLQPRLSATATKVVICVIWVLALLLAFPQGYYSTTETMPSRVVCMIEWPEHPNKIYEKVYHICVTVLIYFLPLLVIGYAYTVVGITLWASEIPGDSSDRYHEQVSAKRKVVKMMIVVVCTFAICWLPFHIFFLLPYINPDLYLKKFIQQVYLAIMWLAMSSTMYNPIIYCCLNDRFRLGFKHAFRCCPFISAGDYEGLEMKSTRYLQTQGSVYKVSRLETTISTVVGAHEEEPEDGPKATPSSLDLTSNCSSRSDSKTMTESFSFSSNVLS
Protocol: The following test was designed to assess the affinity of test substances for human recombinant NK1 receptors expressed in Chinese Hamster Ovarian (CHO) cells.
CHO cells expressing the human recombinant NK1 receptor are used. The cells were obtained from Euroscreen (Brussels, Belgium).
Cells expressing the human NK1 receptor are routinely cultured in 175 cm2 flasks containing 75 ml of medium F12 (Ham) enriched with 2 mmol/l L-glutamine, 100 IU/ml penicilline, 100 μg/ml streptomycine, 1% sodium pyruvate, 2.5 μg/ml fungizone amphotericin B, 400 μg/ml geneticin and supplemented with 10% foetal calf serum. […] When subcultured, the cells are seeded at a concentration of 50,000 cells/cm2.
Confluent cells are gently scraped and resuspended in 25 ml of phosphate buffered saline without calcium and magnesium. The cellular suspension is centrifuged at 1500×g for 3 min (4° C.). The cell pellet is homogenized in a 15 mmol/l Tris-HCl (pH 7.5) buffer, 2 mmol/l MgCl2, 0.3 mmol/l EDTA, 1 mmol/l EGTA. The crude membrane fraction is collected by two consecutive centrifugation steps at 40,000×g for 25 min (4° C.). The final pellet is resuspended in 20 mmol/l Tris-HCl (pH 7.4), 250 mmol/l sucrose buffer at a protein concentration ranging from 2 to 6 mg/ml and stored in liquid nitrogen. • 1.2.2. Test Design
The inhibition constant (Ki) is determined using increasing concentrations of the test substance. The concentration range usually encompasses 6 log units with variable steps (0.3 to 1 log). Assays are performed in mono- or duplicate.
Membranes are incubated at 25° C. for 60 min in 0.5 ml of a 50 mmol/l Tris-HCl buffer (pH 7.4) containing 2 mmol/l MgCl2, 100 μg/ml bacitracine, 0.1 to 0.4×10^−9 mol/l of [4,5^3H-Leu^10] substance P (specific activity>100 Ci/mmol) and increasing concentrations of the test substance. […] Membrane-bound and free radioligands are separated by rapid filtration through glass fiber filters (equivalent to Whatman GF/C or GF/B; VEL, Belgium) presoaked in 0.1% polyethyleneimine to reduce non specific binding. Samples and filters are rinsed by at least 6 ml of 50 mmol/l Tris-HCl (pH 7.4) buffer.
Initial values for the different variables may be provided by the experimenter.

`O=C(O)CN1CCN(C(COCc2cc(C(F)(F)F)cc(C(F)(F)F)c2)c2ccccc2)CC1` (racemic) [Compound 229, {4-[2-(3,5-Bis-trifluoromethyl-benzyloxy)-1-phenyl-ethyl]-piperazin-1-yl}-acetic acid] was tested, and the “% inhibition of [3H]D888 binding to the verapamil binding site of the L-type calcium channel” value (“% inhibition … of the L-type calcium channel” below) [1] was 0 (0: inhibition < 20%), the “Result: effect of compound on isolated rat aorta contracted by 100 mM KCl” value (“Result: effect of compound” below) [2] was “inactive à 10^−5 M” and the IC50 (NK1 receptors) was 79.4 nM.

For `O=C(O)CCCN1CCN(C(COCc2cc(C(F)(F)F)cc(C(F)(F)F)c2)c2ccccc2)CC1` (racemic) [Compound 232], the “% inhibition … of the L-type calcium channel” value [1] was “+ (+: inhibition comprised between 20 and 50%)”, the “Result: effect of compound” value [2] was “inactive à 10^−5 M” and the IC50 (NK1 receptors) was 50.1 nM.

For `O=C(O)CCCCN1CCN(C(COCc2cc(C(F)(F)F)cc(C(F)(F)F)c2)c2ccccc2)CC1` (racemic) [Compound 233, 5-{4-[2-(3,5-Bis-trifluoromethyl-benzyloxy)-1-phenyl-ethyl]-piperazin-1-yl}-pentanoic acid], the “% inhibition … of the L-type calcium channel” value [1] was 0 (0: inhibition < 20%), the “Result: effect of compound” value [2] was “inactive à 10^−5 M” and the IC50 (NK1 receptors) was 31.6 nM.

In the case of `O=C(O)COCCN1CCN(C(COCc2cc(C(F)(F)F)cc(C(F)(F)F)c2)c2ccccc2)CC1` (racemic) [Compound 235, (2-{4-[2-(3,5-Bis-trifluoromethyl-benzyloxy)-1-phenyl-ethyl]-piperazin-1-yl}-ethoxy)-acetic acid], the “% inhibition … of the L-type calcium channel” value [1] is reported as 0 (0: inhibition < 20%), the “Result: effect of compound” value [2] is reported as “inactive à 10^−5 M” and the IC50 (NK1 receptors) is reported as 63.1 nM.

`O=C(O)CN1CCN([C@H](COCc2cc(C(F)(F)F)cc(C(F)(F)F)c2)c2ccccc2)CC1` [Compound 230] was tested, and the “% inhibition … of the L-type calcium channel” value [1] was 0 (0: inhibition < 20%), the “Result: effect of compound” value [2] was “inactive à 10^−5 M” and the IC50 (NK1 receptors) was 50.1 nM.

With `O=C(O)COCCN1CCN([C@H](COCc2cc(C(F)(F)F)cc(C(F)(F)F)c2)c2ccccc2)CC1` [Compound 236] the “% inhibition … of the L-type calcium channel” value [1] was 0 (0: inhibition < 20%), the “Result: effect of compound” value [2] was “inactive à 10^−5 M” and the IC50 (NK1 receptors) was 79.4 nM.

For `O=C(O)c1ccc(CN2CCN([C@H](COCc3cc(C(F)(F)F)cc(C(F)(F)F)c3)c3ccccc3)CC2)cc1` [Compound 243], the “% inhibition … of the L-type calcium channel” value [1] was 0 (0: inhibition < 20%), the “Result: effect of compound” value [2] was “inactive à 10^−5 M” and the IC50 (NK1 receptors) was 63.1 nM.

With `CC(C)COC(=O)COCCN1CCN(C(COCc2cc(C(F)(F)F)cc(C(F)(F)F)c2)c2ccccc2)CC1` (stereo not drawn) [Compound 287, (2-{4-[2-(3,5-Bis-trifluoromethyl-benzyloxy)-1-phenyl-ethyl]-piperazin-1-yl}-ethoxy)-acetic acid isobutyl ester] the “% inhibition … of the L-type calcium channel” value [1] was “+ (+: inhibition comprised between 20 and 50%)”, the “Result: effect of compound” value [2] was “inactive à 10^−5 M” and the IC50 (NK1 receptors) was 31.6 nM.

With `O=c1[nH]nc(CN2CCN(C(COCc3cc(C(F)(F)F)cc(C(F)(F)F)c3)c3ccccc3)CC2)[nH]1` (stereo not drawn) [Compound 295, 5-{4-[2-(3,5-Bis-trifluoromethyl-benzyloxy)-1-phenyl-ethyl]-piperazin-1-ylmethyl}-2,4-dihydro-[1,2,4]triazol-3-one] the “% inhibition … of the L-type calcium channel” value [1] was “− + (+: inhibition comprised between 20 and 50%)”, the “Result: effect of compound” value [2] was “inactive à 10^−5 M” and the IC50 (NK1 receptors) was 63.1 nM.

`FC(F)(F)c1cc(COCC(c2ccccc2)N2CCN(CCCCc3nnn[nH]3)CC2)cc(C(F)(F)F)c1` (stereo not drawn) [Compound 297] was tested, and the “% inhibition … of the L-type calcium channel” value [1] was “+ (+: inhibition comprised between 20 and 50%)”, the “Result: effect of compound” value [2] was “inactive à 10^−5 M” and the IC50 (NK1 receptors) was 20 nM.

In the case of `FC(F)(F)c1cc(COC[C@H](c2ccccc2)N2CCN(CCCCc3nnn[nH]3)CC2)cc(C(F)(F)F)c1` [Compound 298, (S)-1-[2-(3,5-Bis-trifluoromethyl-benzyloxy)-1-phenyl-ethyl]-4-[4-(1H-tetrazol-5-yl)-butyl]-piperazine], the “% inhibition … of the L-type calcium channel” value [1] is reported as “+ (+: inhibition comprised between 20 and 50%)”, the “Result: effect of compound” value [2] is reported as “inactive à 10^−5 M” and the IC50 (NK1 receptors) is reported as 15.8 nM.

For `FC(F)(F)c1cc(COC[C@@H](c2ccccc2)N2CCN(CCCCc3nnn[nH]3)CC2)cc(C(F)(F)F)c1` [Compound 299], the “% inhibition … of the L-type calcium channel” value [1] was “+ (+: inhibition comprised between 20 and 50%)”, the “Result: effect of compound” value [2] was “inactive à 10^−5 M” and the IC50 (NK1 receptors) was 15.8 nM.

For `FC(F)(F)c1cc(COCC(c2ccccc2)N2CCN(CCOCc3nnn[nH]3)CC2)cc(C(F)(F)F)c1` (stereo not drawn) [Compound 300], the “% inhibition … of the L-type calcium channel” value [1] was “+ (+: inhibition comprised between 20 and 50%)”, the “Result: effect of compound” value [2] was “inactive à 10^−5 M” and the IC50 (NK1 receptors) was 31.6 nM.

`Fc1ccc(C(COCc2cc(C(F)(F)F)cc(C(F)(F)F)c2)N2CCN(CCCCc3nnn[nH]3)CC2)cc1` (stereo not drawn) [Compound 301] was tested, and the “% inhibition … of the L-type calcium channel” value [1] was “+ (+: inhibition comprised between 20 and 50%)”, the “Result: effect of compound” value [2] was “inactive à 10^−5 M” and the IC50 (NK1 receptors) was 15.8 nM.

For `CC(OCC(c1ccccc1)N1CCN(CCCCc2nnn[nH]2)CC1)c1cc(C(F)(F)F)cc(C(F)(F)F)c1` (stereo not drawn) [Compound 303], the “% inhibition … of the L-type calcium channel” value [1] was “+ (+: inhibition comprised between 20 and 50%)”, the “Result: effect of compound” value [2] was “inactive à 10^−5 M” and the IC50 (NK1 receptors) was 5.01 nM.
